Values quoted from earlier work in US7429679B2, “Sulphonic acid salt of sibutramine” (CJ Corporation, priority 2005, dated 2008).

System: mouse
Details: intravenous; cited from earlier work

O=S(=O)(O)CCS(=O)(=O)O [ethane disulfonic acid]
LDL0: 68 mg/kg

CCS(=O)(=O)O [ethanesulfonic acid]
LDL0: 48 mg/kg
